The text below walks through data of patent US6989435B2, “Compounds and methods to inhibit or augment an inflammatory response” (Cambridge University Technical Services Ltd., priority 1997, dated 2006).

Experiment [1] deals with chemokine receptors on THP-1 cells. Nature of the experiment: Binding to THP-1 cells. Set-up: species or system human. As to conditions: Table 7. As to the method: In general, specific binding is calculated as the amount of labeled agent bound in the absence of cold competitor minus the amount of labeled agent bound in the presence of cold competitor. The amount of specific binding in the presence of varied amounts of cold competitor can be used to determine the association constant for the agent, as well as the number of binding sites on the cell for the agent, using, for example, Scatchard Analysis. The agent may be labeled by radiolabeling (e.g., iodination) or with a suitable biochemical tag (e.g., biotin) or by addition of a photoactivatable crosslinking group. […]
For example, monocytes are suspended in RPMI 1640 medium without bicarbonate containing 0.2% bovine serum albumin and 0.1% azide. […] Filters are washed with 4 ml of cold wash buffer, and the radioactivity bound to the filters is counted in a γ-counter.
For competition studies, the IC50 is calculated with a curve fitting program (GraFit, Erithacus Software, London), using a four-parameter logistic, cpmbound=cpmmax/(1+([L]/IC50)^S)+cpmns, where cpmmax represents the binding without competitor, [L] is the competitor concentration, cpmns is the non-specific binding, and s is the slope factor. […]

The subject of experiment [2] is SDF-1α induced THP-1 migration. Nature of the experiment: Trans-well THP-1 migration assay, SDF-1α as chemoattractant. As to conditions: Table 6; n.s. = no statistically significant inhibition. It counts as cell-based, human. As to the method: (§1) FIG. 1 is a schematic of the trans-well migration assay. In most experiments, the peptide (wavy line) is added to the upper well with about 50,000 cells (O). The upper and lower wells are separated by a 5 μm or 8 μm pore size PVP-free membrane (- - - -). Chemokine (●) is added to the lower well. After 4 hours, the number of cells that have migrated through the membrane are measured (◯ in lower well).
(§2) To determine whether an agent inhibits a chemokine-induced activity, such as macrophage recruitment, varying amounts of the agent are mixed with cells in the presence of a known chemoattractant. For example, a range of known concentrations of an agent, e.g., a chemokine peptide, is incubated with a defined number (e.g., 10^4-10^6) of human THP-1 monocyte cells in individual wells of the top compartment of a trans-well plate. […] A standard curve consisting of a two-fold dilution series of THP-1 cells (in 29 μl) is prepared to accurately quantify the number of cells that have migrated. […] Absorbance of converted dye is measured at a wavelength of 595 nm using an ELISA plate reader. The number of migrated cells in each well is then determined by interpolation of the standard curve (see also Imai et al., J. Biol. Chem., 272, 15036 (1997)). […]

In experiment [3] the test system is TGFβ1 induced THP-1 migration. Nature of the experiment: Trans-well THP-1 migration assay, TGFβ1 as non-chemokine control chemoattractant. It counts as cell-based, human. Particulars: Table 6; n.s. = no statistically significant inhibition, even at 100 μM. How it is done:
(§3) Any method suitable for counting cells can be used, for example, counting with a hemocytometer, incubation of the cells with MTT (see above), or FACS analysis. A negative control assay is also performed, using TGF-β or another non-chemokine chemoattractant (e.g., IL1β or TNFα). To assess whether the agent is cytotoxic, the same concentrations of agent are incubated with THP-1 cells. Agents which 1) are not cytotoxic at levels which inhibit migration, 2) are ineffective at inhibiting the negative control-induced migration, and 3) reduce or inhibit chemokine-induced THP-1 migration, are agents which fall within the scope of the invention.
For this assay, THP-1 cells were maintained at a density of 4×10^5 cells per ml in RPMI-1640 supplemented with 10% fetal calf serum+20 μM 2-mercaptoethanol. Chemotaxis was induced in a 96-well disposable chemotaxis chamber fitted with a […] polycarbonate filter (PVP free, ChemoTX, Neuroprobe Inc., Cabin John). Twenty-nine μl of chemoattractant (recombinant human chemokine; 50 ng/ml, i.e., 5.9 nM) or control (100 ng/ml TGFβ) was added to the lower compartment of each well. The framed filter was aligned with the holes in the corner of the filter frame and placed over the wells. Five×10^4 THP-1 cells in 25 μl of RPMI-1640 culture media were added to the upper compartment. Peptides were dissolved in Milli Q water and then serially diluted in culture medium. […]
After incubation, the cells were gently removed from the top of the filter with a pipette, 20 μl of 20 mM EDTA in PBS was added into each top well, and the mixture was incubated for 20 minutes at 4° C. […] A standard curve was prepared to accurately quantify the number of THP-1 cells that had migrated. […] Absorbance of converted dye was measured at a wavelength of 595 nm using an ELISA plate reader. The number of cells that had migrated in each well was determined by interpolation of the standard curve.
To investigate the receptor specificity of peptide 3 inhibition, the ED50 was determined for peptide 3(1-12)[MCP-1] […]

Experiment [4] relates to chemokine-induced THP-1 migration (MCP-1, MIP1α, IL8, SDF1α). Nature of the experiment: Trans-well THP-1 migration assay, across the chemokines tested. It is filed as cell-based, human. As to the method:
To determine whether an agent inhibits a chemokine-induced activity, such as macrophage recruitment, varying amounts of the agent are mixed with cells in the presence of a known chemoattractant. […] Chemokine (such as MCP-1, MIP1α, IL8 or SDF-1α), at a concentration known to cause significant migration of THP-1 cells in the trans-well migration assay, is placed in the lower compartment (FIG. 1). […] After incubation, the cells are gently removed from the top of the filter with a pipette, 20 μl of 20 mM EDTA in simple PBS is added into each top well, and incubated for 20 minutes at 4° C. The filter is carefully flushed with media using a gentle flow, and removed. […] The media is carefully aspirated from each well, and the converted dye is solubilized by 20 μl of DMSO. Absorbance of converted dye is measured at a wavelength of 595 nm using an ELISA plate reader. The number of migrated cells in each well is then determined by interpolation of the standard curve (see also Imai et al., J. Biol. Chem., 272, 15036 (1997)). […] The framed filter was aligned with the holes in the corner of the filter frame and placed over the wells. Five×10^4 THP-1 cells in 25 μl of RPMI-1640 culture media were added to the upper compartment. Peptides were dissolved in Milli Q water and then serially diluted in culture medium. In most cases, the serially diluted peptides were added to the upper compartment of the chemotaxis chamber. […] After incubation, the cells were gently removed from the top of the filter with a pipette, 20 μl of 20 mM EDTA in PBS was added into each top well, and the mixture was incubated for 20 minutes at 4° C. The filter was then carefully flushed with media using a gentle flow, and removed. […] The media was carefully aspirated from each well, and the converted dye was solubilized by 20 μl of DMSO. Absorbance of converted dye was measured at a wavelength of 595 nm using an ELISA plate reader. […] Representative chemokines included a beta-chemokine (“CC”), MIP-1α, and two alpha-chemokines (“CXC”), IL-8 and SDF-1α. […]

In experiment [5] the test system is MCP-1 induced THP-1 migration. In words: Trans-well THP-1 migration assay, MCP-1 as chemoattractant. As to conditions: Table 6; n.s. = no statistically significant inhibition. It is filed as cell-based, human. How it is done: as §1
To determine whether an agent inhibits a chemokine-induced activity, such as macrophage recruitment, varying amounts of the agent are mixed with cells in the presence of a known chemoattractant. For example, a range of known concentrations of an agent, e.g., a chemokine peptide, is incubated with a defined number (e.g., 10^4-10^6) of human THP-1 monocyte cells in individual wells of the top compartment of a trans-well plate. Chemokine (such as MCP-1, MIP1α, IL8 or SDF-1α), at a concentration known to cause significant migration of THP-1 cells in the trans-well migration assay, is placed in the lower compartment (FIG. 1). Cells are then incubated at 37° C. for a period sufficient to allow migration, e.g., 4 hours. After incubation, the cells are gently removed from the top of the filter with a pipette, 20 μl of 20 mM EDTA in simple PBS is added into each top well, and incubated for 20 minutes at 4° C. The filter is carefully flushed with media using a gentle flow, and removed. A standard curve consisting of a two-fold dilution series of THP-1 cells (in 29 μl) is prepared to accurately quantify the number of cells that have migrated. Migrated cells are stained with 3 μl of MTT stock dye solution which is added directly into each well (5 mg/ml in RPMI-1640 without phenol red, Sigma Chemical Co.) and incubated at 37° C. for 4 hours. The media is carefully aspirated from each well, and the converted dye is solubilized by 20 μl of DMSO. Absorbance of converted dye is measured at a wavelength of 595 nm using an ELISA plate reader. The number of migrated cells in each well is then determined by interpolation of the standard curve (see also Imai et al., J. Biol. Chem., 272, 15036 (1997)).
as §3
For this assay, THP-1 cells were maintained at a density of 4×10^5 cells per ml in RPMI-1640 supplemented with 10% fetal calf serum+20 μM 2-mercaptoethanol. Chemotaxis was induced in a 96-well disposable chemotaxis chamber fitted with a […] polycarbonate filter (PVP free, ChemoTX, Neuroprobe Inc., Cabin John). Twenty-nine μl of chemoattractant (recombinant human chemokine; 50 ng/ml, i.e., 5.9 nM) or control (100 ng/ml TGFβ) was added to the lower compartment of each well. The framed filter was aligned with the holes in the corner of the filter frame and placed over the wells. Five×10^4 THP-1 cells in 25 μl of RPMI-1640 culture media were added to the upper compartment. Peptides were dissolved in Milli Q water and then serially diluted in culture medium. In most cases, the serially diluted peptides were added to the upper compartment of the chemotaxis chamber. The chamber was incubated at 37° C. in a humidified atmosphere of 5% CO2 for 4 hours.
After incubation, the cells were gently removed from the top of the filter with a pipette, 20 μl of 20 mM EDTA in PBS was added into each top well, and the mixture was incubated for 20 minutes at 4° C. The filter was then carefully flushed with media using a gentle flow, and removed. […]

The subject of experiment [6] is IL8 induced THP-1 migration. In words: Trans-well THP-1 migration assay, IL8 as chemoattractant. It is filed as cell-based, human. Particulars: Table 6; n.s. = no statistically significant inhibition. As to the method: as §1, §2

Marks after values point to notes of the source that are not given here.

For the sequence HLKILNTPNCALQIV [Pep2[SDF1]], the “AVERAGE ED50 (peptide 2 family: estimated ka for binding to THP-1 cells)” value in experiment [1] is reported as 1-10^c μM.
Same read-out and setting: the value for ELRVIESGPHCANTEI [Pep2[IL8]] was 1-10^c μM.
In the case of CLDPKKEWIQ [SEE], the “ED50 versus SDF1α, THP-1 migration” value in experiment [2] was “n.s”. For the same sequence, in experiment [3], the “ED50 versus TGFβ1, THP-1 migration” value is on record as “n.s”. Further, the “specificity for the cognate chemokine over the other chemokines tested” value in experiment [4] is greater than 100 fold. Moreover, the “CC SPECIFICITY” value in experiment [4] (Table 7, average inhibitory ED50 versus SDF1 and IL8 divided by average inhibitory ED50 versus MCP-1 and MIP1α) is recorded as greater than 100. The “ED50 versus MCP1, THP-1 migration” value in experiment [5] was “n.s”. Also, in experiment [6], the “ED50 versus IL8, THP-1 migration” value was “n.s”.
